The assay concerns the target T1, human androgen receptor (Homo sapiens, UniProt P10275).
T1 construct: expressed in transfected cells; host or cells: Chinese hamster ovary (CHO) cells, line CHO-AR-pMMTV-LUC 1G12-A5-CA
T1 sequence (P10275 1-920): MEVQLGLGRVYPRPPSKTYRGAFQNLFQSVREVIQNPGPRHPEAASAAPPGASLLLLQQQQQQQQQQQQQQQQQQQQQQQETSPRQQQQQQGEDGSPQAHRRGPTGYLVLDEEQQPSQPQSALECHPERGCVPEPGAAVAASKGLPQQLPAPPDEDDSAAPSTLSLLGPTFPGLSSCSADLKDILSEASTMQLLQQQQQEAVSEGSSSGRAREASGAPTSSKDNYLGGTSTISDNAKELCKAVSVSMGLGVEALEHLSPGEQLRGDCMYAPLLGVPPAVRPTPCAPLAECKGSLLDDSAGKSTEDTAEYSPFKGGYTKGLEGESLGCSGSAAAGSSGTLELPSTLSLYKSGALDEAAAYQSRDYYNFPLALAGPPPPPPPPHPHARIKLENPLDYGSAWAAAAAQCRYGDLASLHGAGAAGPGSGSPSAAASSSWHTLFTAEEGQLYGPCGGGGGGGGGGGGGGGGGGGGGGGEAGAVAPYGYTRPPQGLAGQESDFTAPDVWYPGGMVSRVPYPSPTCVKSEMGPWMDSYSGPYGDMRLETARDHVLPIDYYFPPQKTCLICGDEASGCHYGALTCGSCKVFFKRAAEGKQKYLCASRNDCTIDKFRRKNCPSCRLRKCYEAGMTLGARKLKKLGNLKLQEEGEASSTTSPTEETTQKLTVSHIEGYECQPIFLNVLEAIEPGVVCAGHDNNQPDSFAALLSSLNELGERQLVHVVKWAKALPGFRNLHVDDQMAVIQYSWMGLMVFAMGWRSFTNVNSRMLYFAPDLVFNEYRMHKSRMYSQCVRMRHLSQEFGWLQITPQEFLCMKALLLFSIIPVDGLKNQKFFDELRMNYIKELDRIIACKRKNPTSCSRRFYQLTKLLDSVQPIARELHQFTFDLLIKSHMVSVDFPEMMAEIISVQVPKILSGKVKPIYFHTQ
As to the kind of experiment: Androgenic activity (potency) in vitro bioassay, CHO-AR-pMMTV-LUC 1G12-A5-CA cells, luciferase reporter. The class given is cell-based. To be noted: CHO cells stably transfected with human androgen receptor and MMTV-luciferase reporter; in the presence of 0.1 μmol/l onapristone; potencies expressed as percentage of DHT activity (maximal efficacy with 100 nmol/l DHT set as 100%). As for the experimental part: The androgenic activity (potency) of the compounds of the invention was determined in an in vitro bioassay of Chinese hamster ovary (CHO) cells stably transfected with the human androgen receptor expression plasmid and a reporter plasmid in which the MMTV promoter is linked to the luciferase reporter gene. The cell line CHO-AR-pMMTV-LUC 1G12-A5-CA is described in Schoonen et al. (J. Steroid Biochem. Molec. Biol. 2002; 74: 213-222). The androgen receptor activity of compounds was determined in the presence of 0.1 μmol/l onapristone. The maximal efficacy in the presence of 100 nmol/1 DHT was set as 100%. The potencies are expressed as percentage of DHT activity.
Background: A reporter such as luciferase makes a cellular process visible.

The text below walks through data of patent US7812036B2, “Androgens” (N.V. Organon, priority 2004, dated 2010).

With `CNc1ccc2c(Sc3ccccc3[N+](=O)[O-])cn(Cc3ccon3)c2c1` [Example 5k, [1-Isoxazol-3-ylmethyl-3-(2-nitro-phenylsulfanyl)-1H-indol-6-yl]-methyl-amine], the “Potency (%)” value stood at 11.9%.

For the compound `C#CCNc1ccc2c(Sc3ccccc3[N+](=O)[O-])cn(Cc3cc(F)cc(F)c3)c2c1` [Example 22b, [1-(3,5-Difluoro-benzyl)-3-(2-nitro-phenylsulfanyl)-1H-indol-6-yl]-prop-2-ynyl-amine], the “Potency (%)” value came to 27.1%.

Regarding `CNc1ccc2c(Sc3ccccc3[N+](=O)[O-])cn(Cc3ccccc3)c2c1` [Example 5a, [1-Benzyl-3-(2-nitro-phenylsulfanyl)-1H-indol-6-yl]-methyl-amine], the “Potency (%)” value is 9.2%.

In the case of `CNc1ccc2c(Sc3ccccc3[N+](=O)[O-])cn(Cc3cccc(C(F)(F)F)c3)c2c1` [Example 5q, Methyl-[3-(2-nitro-phenylsulfanyl)-1-(3-trifluoromethyl-benzyl)-1H-indol-6-yl]-amine], the “Potency (%)” value came out at 1.0%.

`CNc1ccc2c(Sc3ccccc3CO)cn(Cc3cc(F)cc(F)c3)c2c1` [Example 10]: the “Potency (%)” value is 4.3%.

For `CNc1ccc2c(Sc3ccccn3)cn(Cc3cc(F)cc(F)c3)c2c1` [Example 11, [1-(3,5-Difluoro-benzyl)-3-(pyridin-2-ylsulfanyl)-1H-indol-6-yl]-methyl-amine], the “Potency (%)” value was 6.6%.

With `COC(=O)CNc1ccc2c(Sc3ccccc3[N+](=O)[O-])cn(Cc3cc(F)cc(F)c3)c2c1` [Example 22e], the “Potency (%)” value is given as 4.0%.

Consider `O=[N+]([O-])c1ccccc1Sc1cn(Cc2cc(F)cc(F)c2)c2cc(NCCO)ccc12` [Example 21b, 2-[1-(3,5-Difluoro-benzyl)-3-(2-nitro-phenylsulfanyl)-1H-indol-6-ylamino]-ethanol], for which the “Potency (%)” value is 7.9%.

On to `N#CCNc1ccc2c(Sc3ccccc3[N+](=O)[O-])cn(Cc3cccnc3)c2c1` [Example 21j, [3-(2-Nitro-phenylsulfanyl)-1-pyridin-3-ylmethyl-1H-indol-6-ylamino]-acetonitrile], for which the “Potency (%)” value is 1.0%.

For `CNc1ccc2c(Sc3ccccc3[N+](=O)[O-])cn(Cc3ccccc3F)c2c1` [Example 5b], the “Potency (%)” value was 0.4%.

For `CNc1ccc2c(Sc3ccccc3[N+](=O)[O-])cn(Cc3ccco3)c2c1` [Example 5h, [1-Furan-2-ylmethyl-3-(2-nitro-phenylsulfanyl)-1H-indol-6-yl]-methyl-amine], the “Potency (%)” value is 16.5%.

With `CNc1ccc2c(Sc3ccccc3[N+](=O)[O-])cn(Cc3ccoc3)c2c1` [Example 5i, [1-Furan-3-ylmethyl-3-(2-nitro-phenylsulfanyl)-1H-indol-6-yl]-methyl-amine], the “Potency (%)” value was 17.9%.

With `CNc1ccc2c(Sc3ccccc3[N+](=O)[O-])cn(Cc3cscn3)c2c1` [Example 5l, Methyl-[3-(2-nitro-phenylsulfanyl)-1-thiazol-4-ylmethyl-1H-indol-6-yl]-amine], the “Potency (%)” value came to 4.8%.

Take `COCCNc1ccc2c(Sc3ccccc3C#N)cn(Cc3cc(F)cc(F)c3)c2c1` [Example 21i]: the “Potency (%)” value is listed as 6.0%.

With `O=[N+]([O-])c1ccccc1Sc1cn(Cc2cc(F)cc(F)c2)c2cc(NCC(F)(F)F)ccc12` [Example 21k, [1 (3,5-Difluoro-benzyl)-3-(2-nitro-phenylsulfanyl)-1H-indol-6-yl]-(2,2,2-trifluoroethyl)-amine], the “Potency (%)” value was 0.6%.

As for `CCCNc1ccc2c(Sc3ccccc3[N+](=O)[O-])cn(Cc3cc(F)cc(F)c3)c2c1` [Example 22a, [1-(3,5-Difluoro-benzyl)-3-(2-nitro-phenylsulfanyl)-1H-indol-6-yl]-propyl-amine], the “Potency (%)” value was 2.4%.

On to `CNc1ccc2c([S+]([O-])c3ccccc3[N+](=O)[O-])cn(Cc3ccc(F)cc3)c2c1` (stereo not drawn) [Example 5d], for which the “Potency (%)” value came out at 4.3%.

Consider `O=[N+]([O-])c1ccccc1Sc1cn(Cc2cc(F)cc(F)c2)c2cc(NCC3CC3)ccc12` [Example 22d], for which the “Potency (%)” value was determined as 0.9%.

For `C=CCNc1ccc2c(Sc3ccccc3[N+](=O)[O-])cn(Cc3cc(F)cc(F)c3)c2c1` [Example 19b], the “Potency (%)” value stood at 2.4%.

For the compound `N#Cc1ccccc1Sc1cn(Cc2cc(F)cc(F)c2)c2cc(NCCO)ccc12` [Example 21h], the “Potency (%)” value amounted to 2.9%.

On to `CCNc1ccc2c(Sc3ccccc3[N+](=O)[O-])cn(Cc3cc(F)cc(F)c3)c2c1` [Example 19a, [1-(3,5-Difluoro-benzyl)-3-(2-nitro-phenylsulfanyl)-1H-indol-6-yl]-ethyl-amine], for which the “Potency (%)” value stood at 2.7%.

Take `CNc1ccc2c(Sc3ccccc3[N+](=O)[O-])cn(Cc3cccc(F)c3)c2c1` [Example 5c, [1-(3-Fluoro-benzyl)-3-(2-nitro-phenylsulfanyl)-1H-indol-6-yl]-methyl-amine]: the “Potency (%)” value was 13.3%.

`CNc1ccc2c(Sc3ccccc3[N+](=O)[O-])cn(Cc3cccc(Cl)c3)c2c1` [Example 5p, [1-(3-Chloro-benzyl)-3-(2-nitro-phenylsulfanyl)-1H-indol-6-yl]-methyl-amine]: the “Potency (%)” value is 1.3%.

Consider `CNc1ccc2c(Sc3ccccc3C(C)=O)cn(Cc3cc(F)cc(F)c3)c2c1` [Example 8, 1-{2-[1-(3,5-Difluoro-benzyl)-6-methylamino-1H-indol-3-ylsulfanyl]-phenyl}-ethanone], for which the “Potency (%)” value is 0.2%.

As to `CNc1ccc2c(Sc3ccccc3C(=O)OC)cn(Cc3cc(F)cc(F)c3)c2c1` [Example 9], the “Potency (%)” value is reported as 0.7%.

Take `CNc1ccc2c(Sc3ncccc3[N+](=O)[O-])cn(Cc3cc(F)cc(F)c3)c2c1` [Example 12, [1-(3,5-Difluoro-benzyl)-3-(3-nitro-pyridin-2-ylsulfanyl)-1H-indol-6-yl]-methyl-amine]: the “Potency (%)” value is 5.7%.

On to “Methyl-[1-(3-meth 1-benzyl-3-(2-nitro-phenylsulfanyl)-1H-indol-6-yl]-amine [Example 5o]”, for which the “Potency (%)” value is listed as 1.6%.

Regarding `COCCNc1ccc2c(Sc3ccccc3[N+](=O)[O-])cn(Cc3cc(F)cc(F)c3)c2c1` [Example 21c], the “Potency (%)” value turned out to be 11.4%.

Turning to `CNc1ccc2c(Sc3ccccc3[N+](=O)[O-])cn(Cc3ccncc3)c2c1` [Example 5e, Methyl-[3-(2-nitro-phenylsulfanyl)-1-pyridin-4-ylmethyl-1H-indol-6-yl]-amine], the “Potency (%)” value was 35.1%.

With `COCCNc1ccc2c(Sc3ccccc3[N+](=O)[O-])cn(Cc3ccccn3)c2c1` [Example 21e, (2-Methoxy-ethyl)-[3-(2-nitro-phenylsulfanyl)-1-pyridin-2-ylmethyl-1H-indol-6-yl]-amine], the “Potency (%)” value was 8.3%.

Regarding `CNc1ccc2c(Sc3ccccc3[N+](=O)[O-])cn(Cc3cccc(C#N)c3)c2c1` [Example 5r, 3-[6-Methylamino-3-(2-nitro-phenylsulfanyl)-1-indol-1-ylmethyl]-benzonitrile], the “Potency (%)” value was 11.4%.

As to `CCNc1ccc2c(Sc3ccccc3[N+](=O)[O-])cn(Cc3ccccn3)c2c1` [Example 19d, Ethyl-[3-(2-nitro-phenylsulfanyl)-1-pyridin-2-ylmethyl-1H-indol-6-yl]-amine], the “Potency (%)” value came out at 6.7%.

Take `CN(C)c1ccc2c(Sc3ccccc3[N+](=O)[O-])cn(Cc3cccnc3)c2c1` [Example 19e, Dimethyl-[3-(2-nitro-phenylsulfanyl)-1-pyridin-3-ylmethyl-1H-indol-6-yl]-amine]: the “Potency (%)” value came to 2.6%.

Regarding `CNc1ccc2c(Sc3ccccc3[N+](=O)[O-])cn(Cc3ncccn3)c2c1` [Example 5f, Methyl-[3-(2-nitro-phenylsulfanyl)-1-pyrimidin-2-ylmethyl-1H-indol-6-yl]-amine], the “Potency (%)” value is 1.8%.

Take `CNc1ccc2c(S(=O)(=O)c3ccccc3[N+](=O)[O-])cn(Cc3cc(F)cc(F)c3)c2c1` [Example 13, [1-(3,5-Difluoro-benzyl)-3-(2-nitro-benzenesulfonyl)-1H-indol-6-yl]-methyl-amine]: the “Potency (%)” value came out at 18.9%.

Turning to `CNc1ccc2c(Sc3ccccc3C#N)cn(Cc3cc(F)cc(F)c3)c2c1` [Example 6], the “Potency (%)” value stood at 10.5%.
